{"source": "patent US20240374546A1", "about": "“USES AND METHODS FOR PROMOTING INCREASED MITOCHONDRIAL MASS AND FUNCTION” (Brightseed, Inc., priority 2022, published 2024)", "key": {"HNF4α": {"molecular_target": "T1, HNF4α (Homo sapiens, UniProt P41235)", "T1 sequence (P41235 1-474)": "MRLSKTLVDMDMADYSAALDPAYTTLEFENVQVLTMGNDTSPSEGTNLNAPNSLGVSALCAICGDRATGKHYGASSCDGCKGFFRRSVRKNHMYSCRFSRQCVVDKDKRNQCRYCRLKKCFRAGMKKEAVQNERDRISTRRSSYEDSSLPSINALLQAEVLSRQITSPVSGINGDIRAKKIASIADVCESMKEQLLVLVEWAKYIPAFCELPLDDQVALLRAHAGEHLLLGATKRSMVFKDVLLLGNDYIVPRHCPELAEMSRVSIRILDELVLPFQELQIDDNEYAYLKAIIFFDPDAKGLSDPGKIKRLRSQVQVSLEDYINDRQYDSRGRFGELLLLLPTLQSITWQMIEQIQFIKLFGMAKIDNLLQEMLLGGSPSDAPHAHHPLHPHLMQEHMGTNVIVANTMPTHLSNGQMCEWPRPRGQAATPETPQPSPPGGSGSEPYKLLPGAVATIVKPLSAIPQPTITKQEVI", "assay": "Cell-based human insulin promoter reporter assay sensitive to HNF4α activity", "from_the_text": "HNF4α is a nuclear receptor transcription factor that controls the expression of downstream genes that are important in multiple aspects of cellular metabolism. The classical view of HNF4α has been that its ligand binding pocket (LBP) is constitutively occupied by a fatty acid that plays a structural rather than regulatory role. However, it has been shown recently that the fatty acids in the HNF4α LBP are exchangeable in the context of full length HNF4α, particularly inside the cell. […] Using the assay in high-throughput screening, it was discovered HNF4α antagonists and more recently agonists. […] Previously, it was shown that intraperitoneal (IP) administration of NCT reversed hepatic steatosis in obese mice fed a high fat diet through a previously unsuspected pathway involving regulation by HNF4α of dihydroceramide synthesis."}, "IL-6 mRNA": {"test_system": "IL-6 mRNA", "assay": "qPCR primary human hepatocytes, IL-6 mRNA", "format": "cell-based", "details": "NCT 5, 15, 40 μM", "protocol": "Experiments with primary human hepatocytes were performed by CN-Bio (Cambridge, UK). Briefly, primary human hepatocytes (PHHs), human Kupffer cells (HKs) and human stellate cells (HSCs) were seeded onto CN-Bio's PhysioMimix LC12 MPS culture plates at 6×10^5 cells for PHHs and 6×10^4 cells for HKs and HSCs in 1.6 ml of CN-Bio's HEP-lean media with 5% FCS. Throughout the experiment the cells were maintained at a flow rate of 1 μl/s. After 24 hours (Day 1) of seeding, the media was changed to HEP-lean media and the cells were incubated until day 4 to allow the cells to form microtissues. At day 4 post seeding, media was changed to HEP-fat media and treated with DMSO or NCT (5, 15, 40 μM). Media was replaced on days 6 and 8. Cells were harvested on day 10 for RNA extraction and culture media was collected for ELISA analysis.\nTotal RNA was isolated from liver tissues and primary human hepatocytes using Trizol (Invitrogen). cDNA was amplified using 3 μg of total RNA using qScript cDNA SuperMix (Quanta BioSciences, Beverly, MA, USA). Quantitative real time PCR (RT-PCR) analysis was performed using SYBR® Select Master Mix (Applied Biosystems) and an ABI 7900HT thermal cycler (Applied Biosystems, Thermo Fisher Scientific). Ct values were normalized to 18s rRNA and are expressed as fold change over samples from mice fed NC or cultured human hepatocytes without NCT."}}, "note": "Like-named read-outs stand apart in the source and are kept apart here.", "data": [{"smiles": "O=C(/C=C/c1ccc(O)c(O)c1)NCCc1ccc(O)cc1", "note": "[NCT, N-transcaffeoyltyramine]", "values": [{"measurement": "HNF4α agonist activity", "setting": "HNF4α", "result": "strong HNF4α agonists"}, {"measurement": "HNF4α agonist activity", "setting": "HNF4α; listed as N-trans caffeoyltyramine", "result": "potent agonist"}, {"measurement": "IL-6 mRNA in cultured human hepatocytes", "setting": "IL-6 mRNA", "result": "reduced"}]}]}
